{
  "source": "patent US9302991B2",
  "about": "“Arylamide derivatives as TTX-S blockers” (RaQualia Pharma Inc., priority 2010, dated 2016)",
  "key": {"human Nav1.7 (hSCN9A)": {"molecular_target": "T1, human Nav1.7 (hSCN9A) (Homo sapiens, UniProt Q15858)", "T1 construct": "expressed in transfected cells; host or cells: CHO", "T1 sequence (Q15858 whole entry)": "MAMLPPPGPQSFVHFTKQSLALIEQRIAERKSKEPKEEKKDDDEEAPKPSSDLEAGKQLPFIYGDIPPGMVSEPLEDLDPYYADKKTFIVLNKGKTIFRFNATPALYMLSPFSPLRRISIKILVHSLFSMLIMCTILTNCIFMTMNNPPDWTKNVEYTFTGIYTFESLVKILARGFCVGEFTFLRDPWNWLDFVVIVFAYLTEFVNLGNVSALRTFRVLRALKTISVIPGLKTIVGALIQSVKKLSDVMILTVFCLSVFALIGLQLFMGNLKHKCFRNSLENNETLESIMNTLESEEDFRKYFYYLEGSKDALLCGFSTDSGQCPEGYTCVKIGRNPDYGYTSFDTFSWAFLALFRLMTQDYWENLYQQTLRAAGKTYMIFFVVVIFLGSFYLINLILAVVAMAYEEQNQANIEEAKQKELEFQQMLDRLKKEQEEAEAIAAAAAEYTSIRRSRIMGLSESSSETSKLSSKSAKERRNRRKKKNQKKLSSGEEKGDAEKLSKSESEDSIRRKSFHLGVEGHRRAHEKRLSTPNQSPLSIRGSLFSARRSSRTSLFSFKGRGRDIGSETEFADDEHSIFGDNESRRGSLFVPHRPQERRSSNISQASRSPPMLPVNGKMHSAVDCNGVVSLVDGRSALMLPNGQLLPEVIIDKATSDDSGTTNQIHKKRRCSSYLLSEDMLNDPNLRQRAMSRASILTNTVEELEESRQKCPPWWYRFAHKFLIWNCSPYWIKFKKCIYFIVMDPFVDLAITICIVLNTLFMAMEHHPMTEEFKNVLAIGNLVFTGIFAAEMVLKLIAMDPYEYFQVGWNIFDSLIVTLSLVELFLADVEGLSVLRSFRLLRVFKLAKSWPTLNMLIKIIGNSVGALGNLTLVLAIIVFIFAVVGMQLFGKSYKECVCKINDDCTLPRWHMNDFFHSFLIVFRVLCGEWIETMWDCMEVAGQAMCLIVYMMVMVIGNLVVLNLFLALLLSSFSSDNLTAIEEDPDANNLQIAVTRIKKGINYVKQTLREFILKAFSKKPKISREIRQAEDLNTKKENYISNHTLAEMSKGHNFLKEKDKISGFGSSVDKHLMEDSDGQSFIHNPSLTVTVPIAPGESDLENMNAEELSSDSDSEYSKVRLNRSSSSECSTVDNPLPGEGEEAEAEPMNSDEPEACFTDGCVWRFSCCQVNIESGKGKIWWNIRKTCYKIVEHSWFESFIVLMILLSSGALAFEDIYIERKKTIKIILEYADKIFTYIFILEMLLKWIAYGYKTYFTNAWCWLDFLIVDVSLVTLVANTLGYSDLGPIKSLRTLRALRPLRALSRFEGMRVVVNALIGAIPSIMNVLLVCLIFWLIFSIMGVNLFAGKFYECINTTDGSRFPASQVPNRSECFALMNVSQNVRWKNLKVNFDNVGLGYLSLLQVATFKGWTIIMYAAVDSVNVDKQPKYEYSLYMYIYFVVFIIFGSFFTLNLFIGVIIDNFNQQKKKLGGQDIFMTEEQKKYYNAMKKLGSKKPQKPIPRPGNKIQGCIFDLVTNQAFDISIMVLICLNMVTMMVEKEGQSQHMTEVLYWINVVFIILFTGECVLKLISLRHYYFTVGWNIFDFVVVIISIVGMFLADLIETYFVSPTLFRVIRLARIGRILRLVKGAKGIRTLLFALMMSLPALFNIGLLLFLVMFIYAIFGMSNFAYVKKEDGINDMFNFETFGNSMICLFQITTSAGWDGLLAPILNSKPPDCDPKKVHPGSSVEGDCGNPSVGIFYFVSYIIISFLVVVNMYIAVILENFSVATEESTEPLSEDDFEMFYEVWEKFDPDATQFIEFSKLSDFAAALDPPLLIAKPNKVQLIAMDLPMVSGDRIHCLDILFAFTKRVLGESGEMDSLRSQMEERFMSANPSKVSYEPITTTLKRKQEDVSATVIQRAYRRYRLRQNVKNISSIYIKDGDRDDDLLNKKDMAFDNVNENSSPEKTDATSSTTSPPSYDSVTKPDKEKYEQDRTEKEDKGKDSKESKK", "test": "Electrophysiology assay for Navs, whole cell patch clamp, Nav1.7", "type": "cell-based", "details": "Kinact, dissociation constant for the inactivated state, read-out: activities (Ki) against Nav1.7", "description": "Electrophysiology Assay for Navs\nWhole cell patch clamp recording is used to assess the efficacy or selectivity of Na channel blocker on human Nav1.3 (hSCN3A) expressing HEK293 cells or human Nav1.7 (hSCN9A) expressing CHO cells. Human Nav1.3 expressing HEK293 cells are grown in growth media which comprised: DMEM, 10% heat-inactivated FBS (Hyclone Laboratories Inc), 100 microgram/mL Penicillin/100 U/mL Streptomycin, 150 microgram/mL Zeocin, 3 microgram/mL Geneticin. Human Nav1.7 expressing CHO cells are grown in growth media which comprised: HAM/F-12, 9% heat-inactivated FBS (Hyclone Laboratories Inc), 100 microgram/mL Penicillin/100 U/mL Streptomycin, 100 microgram/mL Hygromycin.\nNa channel expressing cells are dissociated by 0.05% Trypsine-EDTA, and then seeded on cover glass for 24-48 hr. […]\nThe normalized steady-state inactivation curve is constructed using 2 sec (for vehicle) or 60 sec (for drugs) conditioning pulse to different potentials followed immediately by the test pulse to −10 mV. […] The affinity of drugs to resting state of Na channels (Kresting or Kr) is assessed by 30 msec test pulse from a negative holding potential of −120 or −130 mV, where virtually all channels are in the resting state. Kr value is calculated by a conventional 1:1 binding model: Kresting(Kr)={[drug]Imax,drug/(Imax,control−Imax,drug)} […]"}, "[1]": {"system": "CFA-induced weight bearing deficit in rats", "test": "CFA-induced weight bearing deficit in rats", "type": "in vivo, Sprague-Dawley rats", "details": "10 mg/kg per os", "description": "CFA-Induced Weight Bearing Deficit in Rats\nMale Sprague-Dawley rats at 7 weeks old are purchased from Charles River Japan Inc., and housed in groups of two per cage under a 12-h light/dark cycle (lights on at 07:00) with access to food and water ad libitum. CFA-induced weight bearing (WB) deficit is assessed using Incapacitance tester (Linton Instrumentation). The animals are habituated to a plastic case that comes with Incapacitance tester before the day of CFA injection. On the day of CFA injection, the weight distribution of each hind paw is measured 3 times per rat using the tester, and the difference of weight distribution, weight on the right (injected) paw minus weight on left (non-injected) paw, is defined as WB deficit value in g. The duration of the each measurement is adjusted to 3 seconds. CFA is prepared at a concentration of 2-3 mg/mL of Mycobacterium tuberculosis H37 RA in liquid paraffin. After disinfections with 70% ethanol, the rats are injected intraplantarly with 100 microL of CFA (200-300 microgram) into the right hind paw. Two days after CFA injection, the weight distribution of each hind paw is measured and the WB deficit value is calculated in the same manner as mentioned above. […] The weight distribution of each hind paw is measured at the appropriated time after compound administration, and the WB deficit value is calculated as previously explained."}},
  "data": [
    {"smiles": "CC(=O)Nc1cc(C(=O)NC(C)c2ccc(OCC(F)(F)F)nc2)ccn1", "note": "(single isomer, unassigned; (-)) [Example 1, (−)-2-acetamido-N-(1-(6-(2,2,2-trifluoroethoxy)pyridin-3-yl)ethyl)isonicotinamide]", "values": [
      {"measurement": "Ki", "setting": "human Nav1.7 (hSCN9A)", "value": 1200, "unit": "nM"},
      {"measurement": "activity in CFA-induced weight bearing deficit", "setting": "[1]", "value": "significant activity"}
    ]}
  ]
}
